Source: ChEMBL document CHEMBL3112509, “Synthesis and antimicrobial activity of (1,4-phenylene)bis(arylsulfonylpyrazoles and isoxazoles)” (2014)
The source made the active and inactive calls. The calls are words filed in the database; no cut-off is given here.

Experiments:
Assay type in all cases: functional
Aspergillus niger [1] = assay: Antifungal activity against Aspergillus niger at 100 ug/well after 48 hrs by agar well diffusion method; conditions: read-out: DIZ
Pseudomonas aeruginosa [2] = assay: Antibacterial activity against Pseudomonas aeruginosa at 100 ug/well after 24 hrs by agar well diffusion method; conditions: for zone of inhibition at 100 µg/disc: read-out: DIZ
Aspergillus niger [3] = assay: Antifungal activity against Aspergillus niger at 50 ug/well after 48 hrs by agar well diffusion method; conditions: read-out: DIZ
Klebsiella pneumoniae [4] = assay: Antibacterial activity against Klebsiella pneumoniae at 50 ug/well after 24 hrs by agar well diffusion method; conditions: for zone of inhibition at 50 µg/disc: read-out: DIZ
Staphylococcus aureus [5] = assay: Antibacterial activity against Staphylococcus aureus at 50 ug/well after 24 hrs by agar well diffusion method; conditions: for zone of inhibition at 50 µg/disc: read-out: DIZ
Staphylococcus aureus [6] = assay: Antibacterial activity against Staphylococcus aureus at 100 ug/well after 24 hrs by agar well diffusion method; conditions: for zone of inhibition at 100 µg/disc: read-out: DIZ
Penicillium chrysogenum [7] = assay: Antifungal activity against Penicillium chrysogenum at 50 ug/well after 48 hrs by agar well diffusion method; conditions: read-out: DIZ
Penicillium chrysogenum [8] = assay: Antifungal activity against Penicillium chrysogenum at 100 ug/well after 48 hrs by agar well diffusion method; conditions: read-out: DIZ
Bacillus subtilis [9] = assay: Antibacterial activity against Bacillus subtilis at 100 ug/well after 24 hrs by agar well diffusion method; conditions: for zone of inhibition at 100 µg/disc: read-out: DIZ
Bacillus subtilis [10] = assay: Antibacterial activity against Bacillus subtilis at 50 ug/well after 24 hrs by agar well diffusion method; conditions: for zone of inhibition at 50 µg/disc: read-out: DIZ
Pseudomonas aeruginosa [11] = assay: Antibacterial activity against Pseudomonas aeruginosa at 50 ug/well after 24 hrs by agar well diffusion method; conditions: for zone of inhibition at 50 µg/disc: read-out: DIZ
Klebsiella pneumoniae [12] = assay: Antibacterial activity against Klebsiella pneumoniae at 100 ug/well after 24 hrs by agar well diffusion method; conditions: for zone of inhibition at 100 µg/disc: read-out: DIZ

Structure (SMILES)	zone of inhibition at 100 µg/disc (Aspergillus niger [1]) [mm]	diameter of the inhibition zone (DIZ) (Pseudomonas aeruginosa [2])	zone of inhibition at 50 µg/disc (Aspergillus niger [3]) [mm]	zone of inhibition at 50 µg/disc (Klebsiella pneumoniae [4]) [mm]	zone of inhibition at 50 µg/disc (Staphylococcus aureus [5]) [mm]	zone of inhibition at 100 µg/disc (Staphylococcus aureus [6]) [mm]	zone of inhibition at 50 µg/disc (Penicillium chrysogenum [7]) [mm]	zone of inhibition at 100 µg/disc (Penicillium chrysogenum [8]) [mm]	zone of inhibition at 100 µg/disc (Bacillus subtilis [9]) [mm]	zone of inhibition at 50 µg/disc (Bacillus subtilis [10]) [mm]	diameter of the inhibition zone (DIZ) (Pseudomonas aeruginosa [11])	zone of inhibition at 100 µg/disc (Klebsiella pneumoniae [12]) [mm]	diameter of the inhibition zone (DIZ) (Klebsiella pneumoniae [4])	diameter of the inhibition zone (DIZ) (Staphylococcus aureus [5])	diameter of the inhibition zone (DIZ) (Staphylococcus aureus [6])	diameter of the inhibition zone (DIZ) (Bacillus subtilis [9])	diameter of the inhibition zone (DIZ) (Bacillus subtilis [10])	diameter of the inhibition zone (DIZ) (Klebsiella pneumoniae [12])	zone of inhibition at 100 µg/disc (Pseudomonas aeruginosa [2]) [mm]	zone of inhibition at 50 µg/disc (Pseudomonas aeruginosa [11]) [mm]
Cc1ccc(S(=O)(=O)C2C(c3ccc(Cl)cc3)=NN(c3ccccc3)C2c2ccc(C3C(S(=O)(=O)c4ccc(C)cc4)C(c4ccc(Cl)cc4)=NN3c3ccccc3)cc2)cc1 (centres undefined)	14	inactive	12	8	9	11	14	16	13	11	inactive	10	–	–	–	–	–	–	–	–
COc1ccc(C2=NN(c3ccccc3)C(c3ccc(C4C(S(=O)(=O)c5ccc(Cl)cc5)C(c5ccc(OC)cc5)=NN4c4ccccc4)cc3)C2S(=O)(=O)c2ccc(Cl)cc2)cc1 (centres undefined)	11	inactive	10	–	–	–	15	17	–	–	inactive	–	inactive	inactive	inactive	inactive	inactive	inactive	–	–
COc1ccc(C2=NN(c3ccccc3)C(c3ccc(C4C(S(=O)(=O)c5ccc(C)cc5)C(c5ccc(OC)cc5)=NN4c4ccccc4)cc3)C2S(=O)(=O)c2ccc(C)cc2)cc1 (centres undefined)	9	inactive	8	–	–	–	10	13	–	–	inactive	–	inactive	inactive	inactive	inactive	inactive	inactive	–	–
COc1ccc(-c2nn(-c3ccccc3)c(-c3ccc(-c4c(S(=O)(=O)c5ccc(Cl)cc5)c(-c5ccc(OC)cc5)nn4-c4ccccc4)cc3)c2S(=O)(=O)c2ccc(Cl)cc2)cc1	27	–	25	15	18	20	24	26	25	23	–	17	–	–	–	–	–	–	16	14
COc1ccc(C2=NOC(c3ccc(C4ON=C(c5ccc(OC)cc5)C4S(=O)(=O)c4ccccc4)cc3)C2S(=O)(=O)c2ccccc2)cc1 (centres undefined)	20	inactive	18	–	–	–	14	17	–	–	inactive	–	inactive	inactive	inactive	inactive	inactive	inactive	–	–
COc1ccc(-c2nn(-c3ccccc3)c(-c3ccc(-c4c(S(=O)(=O)c5ccc(C)cc5)c(-c5ccc(OC)cc5)nn4-c4ccccc4)cc3)c2S(=O)(=O)c2ccc(C)cc2)cc1	21	–	19	13	15	18	22	24	22	20	–	15	–	–	–	–	–	–	13	11
O=S(=O)(c1ccccc1)C1C(c2ccc(Cl)cc2)=NOC1c1ccc(C2ON=C(c3ccc(Cl)cc3)C2S(=O)(=O)c2ccccc2)cc1 (centres undefined)	17	–	15	11	14	16	20	22	20	18	–	13	–	–	–	–	–	–	12	10
